Test system: luciferase gene expression in HEK 293 cells in response to Comp. 004
Assay: Screen of riboswitch constructs with 12C6-1 variant aptamers (libraries N1-N5) against Comp. 004, luciferase in HEK 293 cells
Assay type: cell-based, human
Summary of the method: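 Riboswitch constructs carrying 12C6-1 aptamer variants, randomized in J2-4, J2-3/J3-3a/J3a-2/P3, L3a, J4-5/J5-4/P4 or L5 regions (libraries N1-N5), cloned into an intron-exon-intron cassette driving luciferase. Screened in HEK 293 cells with 25 µM Comp. 004; read-out is fold induction of gene expression versus parent Luci-12C6-1.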

[1] = library N5 variant aptamers (L5, X16-X21 randomized) of 12C6-1 in riboswitch constructs, in response to Comp. 004 treatment, HEK 293 cells
[2] = library N1 (J2-4), HEK 293, 25 M [sic] Comp. 004
[3] = library N2 variant aptamers (J2-3, P3-J3-3a, J3a-2 randomized) of 12C6-1 in riboswitch constructs, in response to Comp. 004, HEK 293 cells

| Substance | Fold (induction of luciferase gene expression) [1] [fold] | other results |
| --- | --- | --- |
| N5_4D7 (CTGGGGAGTCCT; chemistry not given here) | 588.1 |  |
| N1_2H5 (CTGGGGAGTCCTTCATGCGGGGC; chemistry not given here) |  | Fold (induction of luciferase gene expression) [2]: 1.62 fold |
| N5_1D1 (CTGGGGAGTCCT; chemistry not given here) | 321.6 |  |
| N2_2H7 (CTGGGGAGTCCTTCATGC; chemistry not given here) |  | Fold (induction of luciferase gene expression) [3]: 0.8 fold |
| N5_3A3 (CTGGGGAGTCCT; chemistry not given here) | 1066.3 |  |
| N5_6E1 (CTGGGGAGTCCT; chemistry not given here) | 725.2 |  |
| N5_8F1 (DNA CTGGGGAGTCCT; chemistry not given here) | 951.8 |  |
| N2_2D4 (DNA CTGGGGAGTCCTTCATGC; chemistry not given here) |  | Fold (induction of luciferase gene expression) [3]: 0.8 fold |
| N2_2B7 (CTGGGGAGTCCTTCATGC; chemistry not given here) |  | Fold (induction of luciferase gene expression) [3]: 1.2 fold |
| N2_2F2 (DNA CTGGGGAGTCCTTCATGC; chemistry not given here) |  | Fold (induction of luciferase gene expression) [3]: 1.0 fold |
| N5_3D8 (CTGGGGAGTCCT; chemistry not given here) | 824.4 |  |
| N5_1D10 (CTGGGGAGTCCT; chemistry not given here) | 762.7 |  |
| N5_1G6 (CTGGGGAGTCCT; chemistry not given here) | 1311.6 |  |
| N5_14B9 (CTGGGGAGTCCT; chemistry not given here) | 897.5 |  |
| N5_11F4 (CTGGGGAGTCCT; chemistry not given here) | 1230.1 |  |
| N2_2G1 (DNA CTGGGGAGTCCTTCATGC; chemistry not given here) |  | Fold (induction of luciferase gene expression) [3]: 1.7 fold |
| N5_1B3 (CTGGGGAGTCCT; chemistry not given here) | 792.0 |  |
| N5_7G7 (DNA CTGGGGAGTCCT; chemistry not given here) | 952.9 |  |
| N5_8F11 (DNA CTGGGGAGTCCT; chemistry not given here) | 1282.8 |  |
| N5_7A1 (CTGGGGAGTCCT; chemistry not given here) | 897.3 |  |

| Substance | Fold (induction of luciferase gene expression) [1] [fold] | other results |
| --- | --- | --- |
| N5_7C12 (CTGGGGAGTCCT; chemistry not given here) | 628.9 |  |
| N5_1E4 (CTGGGGAGTCCT; chemistry not given here) | 834.9 |  |
| N5_1E9 (CTGGGGAGTCCT; chemistry not given here) | 699.7 |  |
| N5_1H3 (CTGGGGAGTCCT; chemistry not given here) | 764.7 |  |
| N2_2G3 (DNA CTGGGGAGTCCTTCATGC; chemistry not given here) |  | Fold (induction of luciferase gene expression) [3]: 1.1 fold |
| N2_2F1 (DNA CTGGGGAGTCCTTCATGC; chemistry not given here) |  | Fold (induction of luciferase gene expression) [3]: 1.1 fold |
| N5_1B9 (CTGGGGAGTCCT; chemistry not given here) | 941.5 |  |
| N5_7C4 (DNA CTGGGGAGTCCT; chemistry not given here) | 1363.2 |  |
| N5_3G12 (CTGGGGAGTCCT; chemistry not given here) | 756.5 |  |
| N5_9C2 (DNA CTGGGGAGTCCT; chemistry not given here) | 1027.6 |  |
| N5_6B4 (CTGGGGAGTCCT; chemistry not given here) | 1435.7 |  |
| N5_6E6 (CTGGGGAGTCCT; chemistry not given here) | 1032.8 |  |
| N2_2F6 (DNA CTGGGGAGTCCTTCATGC; chemistry not given here) |  | Fold (induction of luciferase gene expression) [3]: 1.0 fold |
| N5_12F4 (CTGGGGAGTCCT; chemistry not given here) | 2096.2 |  |
| N2_2E10 (DNA CTGGGGAGTCCTTCATGC; chemistry not given here) |  | Fold (induction of luciferase gene expression) [3]: 1.2 fold |
| N1_2E10 (CTGGGGAGTCCTTCATGCGGGGC; chemistry not given here) |  | Fold (induction of luciferase gene expression) [2]: 2.86 fold |
| N5_2F12 (CTGGGGAGTCCT; chemistry not given here) | 1100.0 |  |
| N5_7H1 (DNA CTGGGGAGTCCT; chemistry not given here) | 158.5 |  |
| N5_1B8 (CTGGGGAGTCCT; chemistry not given here) | 645.1 |  |
| N5_7C1 (CTGGGGAGTCCT; chemistry not given here) | 87.5 |  |

| Substance | Fold (induction of luciferase gene expression) [1] [fold] | other results |
| --- | --- | --- |
| N5_13D5 (CTGGGGAGTCCT; chemistry not given here) | 749.4 |  |
| N2_2G8 (DNA CTGGGGAGTCCTTCATGC; chemistry not given here) |  | Fold (induction of luciferase gene expression) [3]: 1.1 fold |
| N1_2H9 (CTGGGGAGTCCTTCATGCGGGGC; chemistry not given here) |  | Fold (induction of luciferase gene expression) [2]: 1.91 fold |
| N1_2H8 (CTGGGGAGTCCTTCATGCGGGGC; chemistry not given here) |  | Fold (induction of luciferase gene expression) [2]: 1.45 fold |
| N5_1D8 (CTGGGGAGTCCT; chemistry not given here) | 383.5 |  |
| N5_7G11 (DNA CTGGGGAGTCCT; chemistry not given here) | 1533.8 |  |
| N5_7H5 (DNA CTGGGGAGTCCT; chemistry not given here) | 848.4 |  |
| N5_1E6 (CTGGGGAGTCCT; chemistry not given here) | 365.1 |  |
| N5_7A4 (CTGGGGAGTCCT; chemistry not given here) | 988.3 |  |
| N5_11B9 (CTGGGGAGTCCT; chemistry not given here) | 1595.4 |  |
| N5_7G8 (DNA CTGGGGAGTCCT; chemistry not given here) | 775.6 |  |
| N5_1C2 (CTGGGGAGTCCT; chemistry not given here) | 687.2 |  |
| N5_12G6 (CTGGGGAGTCCT; chemistry not given here) | 2750.8 |  |
| N2_2A2 (CTGGGGAGTCCTTCATGC; chemistry not given here) |  | Fold (induction of luciferase gene expression) [3]: 0.7 fold |
| N5_6G10 (CTGGGGAGTCCT; chemistry not given here) | 1262.0 |  |
| N5_4H7 (CTGGGGAGTCCT; chemistry not given here) | 714.3 |  |
| N1_2F4 (CTGGGGAGTCCTTCATGCGGGGC; chemistry not given here) |  | Fold (induction of luciferase gene expression) [2]: 4.74 fold |
| N1_2H7 (CTGGGGAGTCCTTCATGCGGGGC; chemistry not given here) |  | Fold (induction of luciferase gene expression) [2]: 1.16 fold |

— patent US20250101436A1, “APTAMERS AND SMALL MOLECULE LIGANDS” (MeiraGTx UK II Limited, priority 2021, published 2025)
